Reference: publication PMC4297448, “Detection of distinct glycosylation patterns on human γ-glutamyl transpeptidase 1 using antibody-lectin sandwich array (ALSA) technology” (BMC Biotechnology, 2014)

Molecular target: T1, microvirin (MVN) (Microcystis aeruginosa, UniProt Q2MDE2)
T1 construct: full-length, N-terminal hexahistidine tag (pET-15b), E. coli BL21(DE3), Ni-NTA purified, biotinylated with NHS-SS-biotin
T1 sequence (Q2MDE2 1-108): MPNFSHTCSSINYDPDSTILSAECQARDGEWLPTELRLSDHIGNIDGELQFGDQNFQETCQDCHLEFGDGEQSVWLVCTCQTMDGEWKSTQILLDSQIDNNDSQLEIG
Assay: CFG glycan microarray V5.[…], fluorescence
Assay type: binding
Conditions: biotinylated MVN 200 μg/mL, Alexa Fluor 488-avidin; glycan immobilised via spacer

Row | Compound | Fluorescence (%) ^a
1 | Manα1-2Manα1-3Manα-Sp9 [compound 210] | 57.7%
2 | Manα1-2Manα1-6(Manα1-3)Manα1-6(Manα1-2Manα1-2Manα1-3)Manα-Sp9 [compound 316] | 48.8%
3 | Manα1-2Manα1-6(Manα1-2Manα1-3)Manα-Sp9 [compound 209] | 39.5%
4 | CC(=O)N[C@@H]1[C@@H](O)[C@H](O[C@@H]2O[C@H](CO)[C@@H](O[C@@H]3O[C@H](CO[C@H]4O[C@H](CO[C@H]5O[C@H](CO)[C@@H](O)[C@H](O)[C@@H]5O[C@H]5O[C@H](CO)[C@@H](O)[C@H](O)[C@@H]5O)[C@@H](O)[C@H](O[C@H]5O[C@H](CO)[C@@H](O)[C@H](O)[C@@H]5O)[C@@H]4O)[C@@H](O)[C@H](O[C@H]4O[C@H](CO)[C@@H](O)[C@H](O)[C@@H]4O[C@H]4O[C@H](CO)[C@@H](O)[C@H](O)[C@@H]4O[C@H]4O[C@H](CO)[C@@H](O)[C@H](O)[C@@H]4O)[C@@H]3O)[C@H](O)[C@H]2NC(C)=O)[C@@H](CO)O[C@H]1NC(=O)C[C@H](N)C(=O)O [compound 212, Manα1-2Manα1-6(Manα1-3)Manα1-6(Manα1-2Manα1-2Manα1-3)Manβ1-4GlcNAcβ1-4GlcNAcβ-Sp12] | 100.0%
5 | Manα1-2Manα1-2Manα1-6(Manα1-3)Manα-Sp9 [compound 215] | 78.1%
6 | Manα1-2Manα1-2Manα1-3Manα-Sp9 [compound 208] | 63.8%
7 | CC(=O)N[C@@H]1[C@@H](O)[C@H](O[C@@H]2O[C@H](CO)[C@@H](O[C@@H]3O[C@H](CO[C@H]4O[C@H](CO[C@H]5O[C@H](CO)[C@@H](O)[C@H](O)[C@@H]5O[C@H]5O[C@H](CO)[C@@H](O)[C@H](O)[C@@H]5O)[C@@H](O)[C@H](O[C@H]5O[C@H](CO)[C@@H](O)[C@H](O)[C@@H]5O[C@H]5O[C@H](CO)[C@@H](O)[C@H](O)[C@@H]5O)[C@@H]4O)[C@@H](O)[C@H](O[C@H]4O[C@H](CO)[C@@H](O)[C@H](O)[C@@H]4O[C@H]4O[C@H](CO)[C@@H](O)[C@H](O)[C@@H]4O[C@H]4O[C@H](CO)[C@@H](O)[C@H](O)[C@@H]4O)[C@@H]3O)[C@H](O)[C@H]2NC(C)=O)[C@@H](CO)O[C@H]1NC(=O)C[C@H](N)C(=O)O [compound 213, Manα1-2Manα1-6(Manα1-2Manα1-3)Manα1-6(Manα1-2Manα1-2Manα1-3)Manβ1-4GlcNAcβ1-4GlcNAcβ-Sp12] | 19.8%
8 | CC(=O)N[C@@H]1[C@@H](O)[C@H](O[C@@H]2O[C@H](CO)[C@@H](O[C@@H]3O[C@H](CO[C@H]4O[C@H](CO[C@H]5O[C@H](CO)[C@@H](O)[C@H](O)[C@@H]5O)[C@@H](O)[C@H](O[C@H]5O[C@H](CO)[C@@H](O)[C@H](O)[C@@H]5O[C@H]5O[C@H](CO)[C@@H](O)[C@H](O)[C@@H]5O)[C@@H]4O)[C@@H](O)[C@H](O[C@H]4O[C@H](CO)[C@@H](O)[C@H](O)[C@@H]4O[C@H]4O[C@H](CO)[C@@H](O)[C@H](O)[C@@H]4O)[C@@H]3O)[C@H](O)[C@H]2NC(C)=O)[C@@H](CO)O[C@H]1NC(=O)C[C@H](N)C(=O)O [compound 211, Manα1-6(Manα1-2Manα1-3)Manα1-6(Manα1-2Manα1-3)Manβ1-4GlcNAcβ1-4GlcNAcβ-Sp12] | 31.7%
9 | Manα1-2Manα1-6(Manα1-2Manα1-3)Manα1-6(Manα1-2Manα1-2Manα1-3)Manα-Sp9 [compound 317] | 34.9%
